Test results as given in BindingDB's records for PubMed 38266553 (China Pharmaceutical University).

Tests used:
[1] = target: Prostaglandin G/H synthase 1 (Homo sapiens) (UniProt P23219); assay: Inhibition of COX-1 (unknown origin) using arachidonic acid as substrate preincubated for 10 mins followed by substrate addition and measured after 5 mins by fluorescence based analysis
[2] = target: Prostaglandin G/H synthase 2 (Homo sapiens) (UniProt P35354); assay: Inhibition of COX-2 (unknown origin) using arachidonic acid as substrate preincubated for 10 mins followed by substrate addition and measured after 5 mins by fluorescence based analysis
Sequence of Prostaglandin G/H synthase 2 (Homo sapiens) (P35354 whole entry, looked up): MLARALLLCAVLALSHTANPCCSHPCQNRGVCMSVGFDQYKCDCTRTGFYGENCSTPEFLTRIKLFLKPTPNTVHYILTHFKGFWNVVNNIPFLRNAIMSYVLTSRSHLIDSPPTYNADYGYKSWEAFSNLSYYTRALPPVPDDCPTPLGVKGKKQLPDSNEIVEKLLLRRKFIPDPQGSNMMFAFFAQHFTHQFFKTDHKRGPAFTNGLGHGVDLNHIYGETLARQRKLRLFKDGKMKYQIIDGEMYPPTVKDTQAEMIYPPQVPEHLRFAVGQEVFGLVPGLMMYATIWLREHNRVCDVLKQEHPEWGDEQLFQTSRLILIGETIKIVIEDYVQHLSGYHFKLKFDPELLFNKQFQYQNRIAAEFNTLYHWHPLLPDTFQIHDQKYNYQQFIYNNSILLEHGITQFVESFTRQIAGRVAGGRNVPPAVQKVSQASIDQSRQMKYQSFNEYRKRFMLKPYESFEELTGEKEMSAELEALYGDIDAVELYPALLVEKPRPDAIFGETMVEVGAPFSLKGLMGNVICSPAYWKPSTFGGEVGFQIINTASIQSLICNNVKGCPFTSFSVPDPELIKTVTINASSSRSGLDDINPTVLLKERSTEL

Compound	IC50 [1] [µM]	IC50 [2] [µM]
Cc1[nH]n(-c2ccccc2)c(=O)c1Cc1ccc(C(=O)NO)cc1	5.73	0.075
Cc1nn(-c2cccc(Cl)c2)c(O)c1Cc1ccc(C(=O)NO)cc1	1.36	0.058
CC(C)(C)c1nn(-c2ccccc2)c(O)c1Cc1ccc(C(=O)NO)cc1	1.29	0.144
CCc1nn(-c2ccccc2)c(O)c1Cc1ccc(C(=O)NO)cc1	0.321	0.134
